“Also recorded” adds a separate entry of the source.
How the values were obtained:
Format in all cases: cell-based, human
[1] = tested on: IL-10-secreting T cells (PBMC); test: IL-10 ELISPOT: frequency of TCR CDR2 peptide-specific cells in PBMC; conditions: for frequency of responding cells (IL-10) in SPMS patient: MS186; for frequency of responding cells (IL-10) in HC: healthy controls (HC); for frequency of responding cells (IL-10) in HC / frequency of IL-10-secreting T cells: single peptide; for IL-10 response, SPMS patient versus HC: third SPMS patient (MS186), FIG. 4; for frequency of IL-10-secreting T cells: 5 healthy controls; for IL-10 response, MS patients versus HC: comparison in words
Experimental: (§1) Antigens. Antigens used in the ELISPOT assay included ConA (2 μg/ml) and synthetic TCR peptides (25 μg/ml), including 116 known AV and BV gene products.
(§2) T cell frequency. To determine antigen-specific T cell frequency by ELISPOT, blood mononuclear cells were separated by Ficoll density gradient centrifugation, resuspended in 2% human AB serum, and aliquotted at 0.5 and 0.25 million cells in triplicate wells of nitrocellulose-coated microtiter plates (Resolution Technologies) pretreated with anti-IFN-γ (Mabtech, Sweden) or anti-IL-10 (PharMingen, San Diego, Calif.) mAb. Peptides, ConA, and medium were added and the plates incubated at 37 C for 24 hours (IFN-γ) or 48 hours (IL-10). Biotin-labeled secondary mAb for each cytokine was added, followed by streptavidin-alkaline phosphatase (Dako Corp., Carpinteria, Calif.) and substrate (BCIP/NBT phosphatase substrate, KPL, Gaithersburg, Md.) to develop optimal blue staining. Cytokine spots were quantified using an AID Immunospot Analyzer (AID, Cleveland, Ohio) equipped with a high resolution lens camera and analytical software designed for use with the AID system. Mean spots/well were calculated for each Ag, and net counts established after subtraction of background (no Ag). The frequency of Ag-specific spot-forming cells per million PBMC was determined from the average net response observed at two different cell concentrations. The mean net frequency+SEM was calculated for MS patients and HC, and differences compared by Student's t test for significance (p<0.05).
(§3) Preparation of ELISPOT plates. Four flat bottom 96 well plates with nitrocellulose membranes were coated overnight with 4 μg/ml mouse anti-IL-10 monoclonal antibodies (Pharmingen), and an additional 4 plates were coated with 10 μg/ml mouse anti-human INF((Mabtech). Two hours before addition of peptides, plates were washed 3× with sterile PBS, pH 7.2, and blocked for one hour at room temperature with 10% FBS in sterile PBS.
(§4) Blood processing. Twelve tubes of blood (approximately 120 ml) were collected from healthy controls and MS patients. The blood was immediately separated over a Ficoll gradient by centrifugation for 25 minutes at 2100 rpm at 25 degrees. Peripheral blood mononuclear cells (PBMC) so obtained were washed 3× with cold RPMI and resuspended to 10×10^6 cells per ml.
(§5) TCR peptide screens. Sterile stocks containing 1 mg/ml peptide were aliquotted among 4 sterile 96 well polypropylene blocks. Blocks were kept refrigerated for up to one month. Precoated and blocked ELIPSOT plates were washed with 1× with blocking solution and 100 μl of stimulation medium was added (5% fetal bovine serum/1% human AB serum/2 mM pyruvate, 2 mM glutamate, and 50 μg/ml penicillin/streptomycin). 10 μl of each peptide was added per well in triplicate wells. Negative control wells contained RPMI, positive control wells contained 2 μg/ml final concentration ConA. To each well human PBMC were added at a density of 2.5×10^5 cells per well in a total of 8 plates ([…]). Plates were incubated for 24 hours for INF-γ ELISPOTs and for 48 hours for IL-10 ELISPOTs.
(§6) Detection of cytokine producing cells. PBMC were removed from plates by washing with 3× with PBS and 3× with PBS/0.05% Tween, pH 7.6. To each well was added 100 μl of either anti-IFN-γ (1 μg/ml, Mabtech) or anti-IL-10 (2 μg/ml, Pharmingen) and incubated for 4 hours at room temperature in the dark. Plates were washed 4× with PBS/Tween, then 100 μl per well of alkaline-phosphatase-conjugated streptaviden (DAKO) (1:1000 of stock) was added and plates were incubated for 45 minutes at room temperature. Plates were washed 4× with PBS/Tween and 6× with PBS, 1 minute each. 100 μl of BCIP/NBT substrate (KPL laboratories) was added and the color reaction was allowed to develop for 3-7 minutes. Plates were rinsed 3× with distilled water and dried overnight at room temperature.
(§7) Analysis of ELISPOTS. […]

[2] = tested on: IFN-γ-secreting T cells (PBMC); test: IFN-γ ELISPOT: frequency of TCR CDR2 peptide-specific cells in PBMC; conditions: for induction of IFN-γ-secreting T cells in HC: 5 HC; for frequency of IFN-γ-secreting cells: 5 healthy controls, mean, single peptide
Experimental: as §1, §2, §3, §4, §5, §6, §7

[3] = tested on: CD4+CD25− T cells; test: Treg assay of antigen-specific CD4+CD25+ T cell lines; conditions: result in words

VLKNEFKFLISFQNENVFDET [BV25S1A1T]
frequency of responding cells (IL-10) in SPMS patient [1]: 450 cells/million
frequency of responding cells (IL-10) in HC [1]: 150 cells/million
IL-10 response, SPMS patient versus HC [1]: responded better than HC

KHGEAPVFLMILLKGGEQKGH [AV29S1A2T]
frequency of IL-10-secreting T cells ([1]; mean): > 1000 cells/million PBMC
frequency of responding cells (IL-10) in MS patients ([1]; MS patients, mean): > 1500 cells/million
frequency of responding cells (IL-10) in HC [1]: about 1000 cells/million

SSGEMIFLIYQGSYDQQNATE [ADV6S1A1N1]
induction of IFN-γ-secreting T cells in HC [2]: induced IFN-γ-secreting T cells in all 5 HC
IFN-γ recognition by MS patients [2]: poorly recognized

DLGHGLRLIHYSYGVKDTNKG [BV12S2A2T]
induction of IFN-γ-secreting T cells in HC [2]: induced IFN-γ-secreting T cells in all 5 HC
IFN-γ recognition by MS patients [2]: poorly recognized

NQNKEFMLLISFQNEQVLQET [BV19S1P]
frequency of IFN-γ-secreting cells [2]: 900 cells/million PBMC

KLEEELKFLVYFQNEELIQKA [BV10S1P]
frequency of IL-10-secreting T cells ([1]; mean): > 2000 cells/million PBMC
frequency of IFN-γ-secreting cells [2]: minimal frequencies

Tetanus toxoid
Treg activity of T cell line specific for the antigen [3]: did not have any detectable Treg activity

YPNQGLQLLLKYTSAATLVKG [AV1S2A1N1T]
frequency of responding cells (IL-10) in SPMS patient [1]: 300 cells/million
frequency of responding cells (IL-10) in two symptomatic RRMS patients ([1]; MS193 and MS74): > 1700 cells/million
frequency of responding cells (IL-10) in HC [1]: < 25 cells/million
IL-10 response, SPMS patient versus HC [1]: responded better than HC

ALGQGPQFIFQYYEEEERQRG [BV5S2]
IL-10 response, MS patients versus HC [1]: significantly lower; also recorded: significantly reduced frequencies

DLGHGLRLIHYSYGVQDTNKG [BV12S2A1T]
induction of IFN-γ-secreting T cells in HC [2]: induced IFN-γ-secreting T cells in all 5 HC
IFN-γ recognition by MS patients [2]: poorly recognized

SLGQGPEFLIYFQGTGAADDS [BV6S1A1N1]
IL-10 response, MS patients versus HC [1]: significantly lower
IL-10 response, MS patients versus HC ([1]; listed as BV6S1A1N1T): significantly reduced frequencies

Reference: patent US7462486B2, “Methods of selecting T cell receptor V peptides for therapeutic use” (Oregon Health & Science University, priority 2000, dated 2008)
